Experiment [1] in a line: Anti-proliferative activity against human HT1080 cells after 72 hrs by MTT assay. Type of experiment: functional, cell-based. Conditions: HT-1080, 72 h.
The nature of experiment [2]: Anti-proliferative activity against human SGC7901 cells after 72 hrs by MTT assay. Type of experiment: functional, cell-based. Conditions: SGC-7901, 72 h. (Tetrazolium dyes change colour on reduction, which living cells bring about.)
A further experiment concerns KB. Put plainly: Anti-proliferative activity against human KB cells after 72 hrs by MTT assay. It counts as functional, cell-based.
In experiment [3] the target is T1, Tubulin (Homo sapiens) (UniProt P68371+Q9H4B7+P0DPH7+P68366+Q13509+Q71U36+P04350+Q3ZCM7+P07437+P68363+Q9BQE3+Q6PEY2+Q13885+Q9BVA1+Q9BUF5). Put plainly: (§1) Inhibition of tubulin (unknown origin) polymerization pre-incubated for 1 min measured for 1 min interval for 90 mins by fluorescence based assay. It counts as protein-complex assay.
The next experiment has as its target Tubulin. The description is as §1. Type of experiment: protein-complex assay, Homo sapiens.
For experiment [4], the target named is T1, Tubulin (Homo sapiens). The experiment can be described thus: Inhibition of tubulin (unknown origin) polymerization at 1 uM pre-incubated for 1 min measured for 1 min interval for 90 mins by fluorescence based assay. Type of experiment: protein-complex assay.
Experiment [5] addresses T1, Tubulin (Homo sapiens). The experiment can be described thus: Inhibition of tubulin (unknown origin) polymerization at 2 uM pre-incubated for 1 min measured for 1 min interval for 90 mins by fluorescence based assay. Type of experiment: protein-complex assay.
The target in experiment [6] is T1, Tubulin (Homo sapiens). The experiment can be described thus: Inhibition of tubulin (unknown origin) polymerization at 4 uM pre-incubated for 1 min measured for 1 min interval for 90 mins by fluorescence based assay. It counts as protein-complex assay.
Experiment [7] has as its target T1, Tubulin (Homo sapiens). Put plainly: Inhibition of tubulin (unknown origin) polymerization at 10 uM pre-incubated for 1 min measured for 1 min interval for 90 mins by fluorescence based assay. It counts as protein-complex assay.
For a further experiment, the system named is SGC-7901. The experiment can be described thus: Induction of microtubule network disruption in human SGC7901 cells at 0.4 uM after 24 hrs using DAPI immunofluorescence staining. Type of experiment: cell-based.
In experiment [8] the target is T1, Tubulin (Homo sapiens). Put plainly: Inhibition of tubulin (unknown origin) polymerization at 2.5 uM pre-incubated for 1 min measured for 1 min interval for 90 mins by fluorescence based assay. It counts as protein-complex assay.
In experiment [9] the target is T1, Tubulin (Homo sapiens). The experiment can be described thus: Inhibition of tubulin (unknown origin) polymerization at 5 uM pre-incubated for 1 min measured for 1 min interval for 90 mins by fluorescence based assay. Type of experiment: protein-complex assay.
Experiment [10] concerns the target T1, Tubulin (Homo sapiens). Put plainly: Inhibition of tubulin (unknown origin) polymerization at 15 uM pre-incubated for 1 min measured for 1 min interval for 90 mins by fluorescence based assay. Type of experiment: protein-complex assay.

Structures are written as SMILES. Calls of active or inactive are those of the source. The calls are words filed in the database; no cut-off is given here.

A word on the IC50: it is the concentration that inhibits the measured activity by half. A low value points to greater potency in that assay. Take `COc1ccc(-c2ccsc2-c2cc(OC)c(OC)c(OC)c2)cc1[N+](=O)[O-]`: the IC50 in experiment [1] came out at 8.04 µM; in experiment [2], 10.2 µM; with KB, 21 µM.
In general, inhibition refers to the percentage by which the read-out fell short of the control. `COc1ccc(-c2ccsc2-c2cc(OC)c(OC)c(OC)c2)cc1O`: the IC50 in [1] is 2.12 µM; in experiment [2], 0.52 µM; with KB, 1.53 µM; on Tubulin it was 5.01 µM. The inhibition result is “Dose-dependent effect” at Tubulin (Homo sapiens) [3]; 10% against Tubulin (Homo sapiens) [4]; 23.3% against Tubulin (Homo sapiens) [5]; 39.3% against Tubulin (Homo sapiens) [6]; 87.5% at Tubulin (Homo sapiens) [7]. For the same compound, in the experiment on SGC-7901, the outcome was Active.
As for `COc1ccc(-c2ccsc2-c2cc(OC)c(OC)c(OC)c2)cc1`, the half-maximal inhibitory concentration (IC50) was 3.62 µM in experiment [1], 2.74 µM in experiment [2] and 7.4 µM in the experiment with KB.
For `CCOC(=O)c1cc(-c2cc(OC)c(OC)c(OC)c2)c(-c2ccc(OC)c(O)c2)s1`, the figures for the IC50 (in [1]; in experiment [2]; in the experiment with KB) were 3.22 µM, 1.58 µM and 1.25 µM, respectively.
As for `COc1ccc(-c2sc(C(=O)O)cc2-c2cc(OC)c(OC)c(OC)c2)cc1O`, the IC50 in [1] amounted to 7.51 µM; in experiment [2], 6.1 µM; with KB, 11.2 µM.
Turning to `COc1cc(-c2cc(C(=O)O)sc2-c2cccc(Br)c2)cc(OC)c1OC`, the results for the IC50 (in experiment [1]; in [2]; in the experiment on KB) were over 100 µM, 93.4 µM and 32.3 µM, respectively.
On to `COc1cc(-c2ccsc2-c2cccc(Br)c2)cc(OC)c1OC`, for which the half-inhibitory concentration (IC50) in experiment [1] is over 100 µM; in [2] it was 46.1 µM; in the experiment with KB it was over 100 µM.
As to `COc1ccc(-c2ccsc2-c2cc(OC)c(OC)c(OC)c2)cc1OCc1ccccc1`, the IC50 (in experiment [1]; in [2]; in the experiment with KB) was over 100 µM in each case.
As to `COc1ccc(/C=C\c2cc(OC)c(OC)c(OC)c2)cc1O` [COMBRETASTATIN A4], the results for the IC50 (in [1]; in experiment [2]; in the experiment with KB) were 0.011 µM, 0.024 µM and 0.016 µM, respectively. Also, the result in the experiment with SGC-7901 was Active.
Take `CCOC(=O)c1cc(-c2ccc(OC)cc2)c(-c2cc(OC)c(OC)c(OC)c2)s1`: the IC50 in experiment [1] turned out to be 7.63 µM; in [2] it was 6.82 µM; in the experiment with KB it was 10.2 µM.
With `CCOC(=O)c1cc(-c2ccc(OC)c(OCc3ccccc3)c2)c(-c2cc(OC)c(OC)c(OC)c2)s1`, the IC50 (in [1]; in experiment [2]; in the experiment with KB) was over 100 µM in each case.
Regarding `CCOC(=O)c1cc(-c2cc(OC)c(OC)c(OC)c2)c(-c2ccc(OC)c(OCc3ccccc3)c2)s1`, the 50% inhibitory concentration (IC50) (in experiment [1]; in experiment [2]; with KB) was over 100 µM throughout.
In the case of `COc1ccc(-c2sccc2-c2cc(OC)c(OC)c(OC)c2)cc1`, the values for the IC50 (in experiment [1]; in experiment [2]; in the experiment on KB) were 4.59 µM, 5.47 µM and 8.88 µM, respectively.
The like results for `COc1ccc(-c2cc(C(=O)O)sc2-c2cc(OC)c(OC)c(OC)c2)cc1O` were, in that order, 11.4 µM, 17.5 µM and 21.8 µM.
`CCOC(=O)c1cc(-c2ccc(OC)c(O)c2)c(-c2cc(OC)c(OC)c(OC)c2)s1`: the half-maximal inhibitory concentration (IC50) in experiment [1] is 82.5 µM; in experiment [2], 20 µM; in the experiment on KB, over 100 µM.
`CCOC(=O)c1cc(-c2cc(OC)c(OC)c(OC)c2)c(-c2cccc(Br)c2)s1`: the 50% inhibitory concentration (IC50) (in experiment [1]; in [2]; in the experiment with KB) was over 100 µM each time.
Regarding `CCOC(=O)c1cc(-c2cc(OC)c(OC)c(OC)c2)c(-c2ccc3ccccc3c2)s1`, the results for the IC50 (in experiment [1]; in experiment [2]; in the experiment on KB) were 1.15 µM, 4.34 µM and 5.89 µM, respectively.
`COc1ccc(-c2cc(C(=O)O)sc2-c2cc(OC)c(OC)c(OC)c2)cc1[N+](=O)[O-]`: the concentration for half-maximal inhibition (IC50) in experiment [1] is 38.1 µM; in [2], 21.6 µM; in the experiment with KB, 43.7 µM.
The like results for `COc1ccc(-c2cc(C(=O)O)sc2-c2cc(OC)c(OC)c(OC)c2)cc1` were, in that order, 5.81 µM, 4.22 µM and 8.65 µM.
Consider `COc1ccc(-c2sc(C(=O)O)cc2-c2cc(OC)c(OC)c(OC)c2)cc1OCc1ccccc1`, for which the IC50 (in [1]; in [2]; in the experiment on KB) was over 100 µM throughout.
Regarding `COc1ccc(-c2sccc2-c2cc(OC)c(OC)c(OC)c2)cc1[N+](=O)[O-]`, the values for the half-inhibitory concentration (IC50) (in [1]; in experiment [2]; in the experiment on KB) were 2.1 µM, 3.31 µM and 10.6 µM, respectively.
With `COc1ccc(-c2cc(C(=O)O)sc2-c2cc(OC)c(OC)c(OC)c2)cc1OCc1ccccc1`, the 50% inhibitory concentration (IC50) (in experiment [1]; in experiment [2]; in the experiment on KB) was over 100 µM each time.
Regarding `CCOC(=O)c1cc(-c2cc(OC)c(OC)c(OC)c2)c(-c2ccc(OC)cc2)s1`, the IC50 in [1] turned out to be 8.37 µM; in [2], 9.76 µM; with KB it was 13.2 µM.
The matching figures for `CCOC(=O)c1cc(-c2cc(OC)c(OC)c(OC)c2)c(-c2ccc(OC)c([N+](=O)[O-])c2)s1`: 12.7 µM, 18.1 µM and 15.8 µM.
On to `COc1ccc(-c2sccc2-c2cc(OC)c(OC)c(OC)c2)cc1O`, for which the IC50 was found to be 1.94 µM in experiment [1], 0.58 µM in experiment [2], 6.27 µM with KB and 9.76 µM at Tubulin. For the same compound, the inhibition result is “Dose-dependent effect” at Tubulin (Homo sapiens) [3]; 48% against Tubulin (Homo sapiens) [7]; 7.4% against Tubulin (Homo sapiens) [8]; 20% on Tubulin (Homo sapiens) [9]; 72.3% against Tubulin (Homo sapiens) [10].
Regarding `COc1ccc(-c2sc(C(=O)O)cc2-c2cc(OC)c(OC)c(OC)c2)cc1`, the IC50 in experiment [1] was determined as 6.77 µM; in experiment [2] it was 7.8 µM; in the experiment on KB, 10.4 µM.
The like results for `COc1cc(-c2cc(C(=O)O)sc2-c2ccc3ccccc3c2)cc(OC)c1OC` were, in that order, 13.4 µM, 0.38 µM and 5.64 µM.
The matching figures for `COc1ccc(-c2sccc2-c2cc(OC)c(OC)c(OC)c2)cc1OCc1ccccc1`: over 100 µM, over 100 µM and over 100 µM.
Turning to `COc1cc(-c2ccsc2-c2ccc3ccccc3c2)cc(OC)c1OC`, the concentration for half-maximal inhibition (IC50) was 5.43 µM in experiment [1], 5.89 µM in experiment [2] and 3.66 µM with KB.
On to `COc1ccc(-c2sc(C(=O)O)cc2-c2cc(OC)c(OC)c(OC)c2)cc1[N+](=O)[O-]`, for which the IC50 in [1] amounted to 37.2 µM; in [2], 23.3 µM; in the experiment with KB, 35.9 µM.
`CCOC(=O)c1cc(-c2ccc(OC)c([N+](=O)[O-])c2)c(-c2cc(OC)c(OC)c(OC)c2)s1`: the IC50 in [1] came to 26.1 µM; in experiment [2], 19.4 µM; with KB, 24 µM.
